Data reported in patent US20130317045A1, “THIENOPYRIDINE AND THIENOPYRIMIDINE COMPOUNDS AND METHODS OF USE THEREOF” (AMBIT BIOSCIENCES CORPORATION, priority 2010, published 2013).
pIC50, pKd: −log10 of the molar value.

Experiments:
JAK3 = target: T1, JAK3 (Homo sapiens, UniProt P52333); assay: Competition binding assay, JAK3
T1 construct: made in house
T1 sequence (P52333 1-1124): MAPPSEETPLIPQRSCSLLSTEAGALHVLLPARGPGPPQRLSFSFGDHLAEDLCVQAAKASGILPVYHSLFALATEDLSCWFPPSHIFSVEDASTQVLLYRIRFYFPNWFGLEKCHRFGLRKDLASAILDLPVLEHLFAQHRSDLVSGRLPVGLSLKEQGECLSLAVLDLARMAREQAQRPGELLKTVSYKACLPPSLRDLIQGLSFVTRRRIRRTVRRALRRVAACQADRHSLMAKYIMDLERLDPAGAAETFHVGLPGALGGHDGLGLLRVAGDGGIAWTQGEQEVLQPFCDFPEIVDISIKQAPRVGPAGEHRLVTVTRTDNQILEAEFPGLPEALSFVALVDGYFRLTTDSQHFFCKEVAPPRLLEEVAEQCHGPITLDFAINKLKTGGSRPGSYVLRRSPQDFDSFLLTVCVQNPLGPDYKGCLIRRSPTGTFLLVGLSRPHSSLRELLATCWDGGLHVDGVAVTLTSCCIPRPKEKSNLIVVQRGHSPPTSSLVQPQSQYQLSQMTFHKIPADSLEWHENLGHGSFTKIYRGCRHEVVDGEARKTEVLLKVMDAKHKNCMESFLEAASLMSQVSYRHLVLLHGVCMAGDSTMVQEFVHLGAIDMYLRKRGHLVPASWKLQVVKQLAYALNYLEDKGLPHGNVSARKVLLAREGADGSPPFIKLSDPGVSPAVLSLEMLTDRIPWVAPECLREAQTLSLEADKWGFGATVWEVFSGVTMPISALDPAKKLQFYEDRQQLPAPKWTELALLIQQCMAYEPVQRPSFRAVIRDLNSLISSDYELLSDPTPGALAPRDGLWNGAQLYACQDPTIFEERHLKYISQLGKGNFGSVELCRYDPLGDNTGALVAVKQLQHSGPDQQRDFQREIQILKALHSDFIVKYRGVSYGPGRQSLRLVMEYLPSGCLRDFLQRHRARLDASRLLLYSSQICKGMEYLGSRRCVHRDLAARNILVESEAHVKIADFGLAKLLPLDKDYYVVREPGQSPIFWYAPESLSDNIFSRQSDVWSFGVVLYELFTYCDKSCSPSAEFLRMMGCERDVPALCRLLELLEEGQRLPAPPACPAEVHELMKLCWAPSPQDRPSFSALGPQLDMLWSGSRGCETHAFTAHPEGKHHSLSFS
Source text: (§1) Competition Binding Assay to Determine Binding Constants (Kd) of the Compounds Against JAK Kinases
(§2) Competition binding assays used herein were developed, validated and performed as described in Fabian et al., Nature Biotechnology 2005, 23,329-336. Kinases were produced as fusions to T7 phage (See, Fabian et al. or WO04/015142) or alternatively, the kinases were expressed in HEK-293 cells and subsequently tagged with DNA for PCR detection (See, WO08/005310). For the binding assays, streptavidin-coated magnetic beads were treated with biotinylated affinity ligands for 30 min at rt to generate affinity resins. The liganded beads were blocked with excess biotin and washed with blocking buffer (SeaBlock (Pierce), 1% BSA, 0.05% Tween 20, 1 mM DTT) to remove unbound ligand and to reduce non-specific binding. Binding reactions were assembled by combining kinase, liganded affinity beads, and test compounds in 1× binding buffer (20% SeaBlock, 0.17×PBS, 0.05% Tween 20, 6 mM DTT). Test compounds were prepared as 100× stocks in DMSO and rapidly diluted into the aqueous environment. DMSO was added to control assays lacking a test compound. Primary screen interactions were performed in polypropylene 384-well plates in a final volume of 34 μL, while Kd determinations were performed in polystyrene 96-well plates in a final volume of 135 μL. The assay plates were incubated at room temperature with shaking for 1 hour, long enough for binding reactions to reach equilibrium, and the affinity beads were washed extensively with wash buffer (1× PBS, 0.05% Tween 20) to remove unbound protein. The beads were then resuspended in elution buffer (1× PBS, 0.05% Tween 20, 2 μM non-biotinylated affinity ligand) and incubated at room temperature with shaking for 30 min. The kinase concentration in the eluates was measured by quantitative PCR. Each kinase was tested individually against each compound. Kds were determined using eleven serial threefold dilutions. A selectivity score, which is a quantitative measure of selectivity of a compound against a panel of enzymes, may be calculated for a compound by dividing the number of enzymes for which a compound meets a set criteria, (for example, a binding constant of 100 nM or less), by the total number of enzymes tested.

[1] = tested on: distinct kinases tested excluding mutant variants, typically 359 or 386 kinases; assay: Kinase selectivity score from competition binding panel; conditions: compound at 10 μM; fraction of kinases with inhibition of 90% or greater
Protocol: as §2

[2] = tested on: GM-CSFR/JAK2/STAT5 pathway in CSTF-1 cells; assay: CSTF-1 cell-based reporter assay (beta-lactamase, GM-CSF stimulated); set-up: species or system human; conditions: Homo sapiens; GM-CSF at 2 ng/mL, 4 hours; read-out: Cell Assay: CS TF-1 reporter assay IC50
Protocol: CSTF-1 Cell-Based Reporter Assay
CSTF-1 cells are derived from the human erythroleukemia cell line that is growth dependent on GM-CSF and has an intact GM-CSFR/JAK2/STAT5 pathway. The cell line contains stably integrated beta-lactamase reporter gene under the control of the […] (irf 1) response element recognized by the activated transcription factor STATS. csTF-1 cells (Invitrogen K1219) were washed with assay media (97% OPTIMEM/ 0.5% dialyzed FBS/0.1 mM NEAA/1 mM Na pyr/P/S) and seeded in the same media at 5×10^5 cell/mL in T150 flask. After 16 hour incubation, cells were seeded at 2×10^5 cell/well in 50 μl volume, into Costar, clear bottom, 96-well assay plates. Serial dilutions of compounds were added to the plates with final DMSO concentration at 0.5% and GM-CSF at 2 ng/mL and the plates were then incubated at […] and 5% CO2 for 4 hours. The plates were brought to room temperature before adding Substrate Mixture according to manufacturer's protocol (Invitrogen, Catalog #K1085). The assay plates containing the substrate mixture were incubated in the dark at room temperature for 2 hours. Blue and green fluorescence was measured with excitation at 409 nm and emission at 460 nm (for blue) and excitation at 409 nm and emission at 530 nm (for green) using Spectra Max Gemini EM.

TYK2 = target: T2, TYK2 (Homo sapiens, UniProt P29597); assay: Competition binding assay, TYK2
T2 construct: made in house
Source text: as §1, §2

JAK2 = target: T3, JAK2 (Homo sapiens, UniProt O60674); assay: Competition binding assay, JAK2
T3 construct: made in house
Source text: as §1, §2

T3 sequence (O60674 whole entry): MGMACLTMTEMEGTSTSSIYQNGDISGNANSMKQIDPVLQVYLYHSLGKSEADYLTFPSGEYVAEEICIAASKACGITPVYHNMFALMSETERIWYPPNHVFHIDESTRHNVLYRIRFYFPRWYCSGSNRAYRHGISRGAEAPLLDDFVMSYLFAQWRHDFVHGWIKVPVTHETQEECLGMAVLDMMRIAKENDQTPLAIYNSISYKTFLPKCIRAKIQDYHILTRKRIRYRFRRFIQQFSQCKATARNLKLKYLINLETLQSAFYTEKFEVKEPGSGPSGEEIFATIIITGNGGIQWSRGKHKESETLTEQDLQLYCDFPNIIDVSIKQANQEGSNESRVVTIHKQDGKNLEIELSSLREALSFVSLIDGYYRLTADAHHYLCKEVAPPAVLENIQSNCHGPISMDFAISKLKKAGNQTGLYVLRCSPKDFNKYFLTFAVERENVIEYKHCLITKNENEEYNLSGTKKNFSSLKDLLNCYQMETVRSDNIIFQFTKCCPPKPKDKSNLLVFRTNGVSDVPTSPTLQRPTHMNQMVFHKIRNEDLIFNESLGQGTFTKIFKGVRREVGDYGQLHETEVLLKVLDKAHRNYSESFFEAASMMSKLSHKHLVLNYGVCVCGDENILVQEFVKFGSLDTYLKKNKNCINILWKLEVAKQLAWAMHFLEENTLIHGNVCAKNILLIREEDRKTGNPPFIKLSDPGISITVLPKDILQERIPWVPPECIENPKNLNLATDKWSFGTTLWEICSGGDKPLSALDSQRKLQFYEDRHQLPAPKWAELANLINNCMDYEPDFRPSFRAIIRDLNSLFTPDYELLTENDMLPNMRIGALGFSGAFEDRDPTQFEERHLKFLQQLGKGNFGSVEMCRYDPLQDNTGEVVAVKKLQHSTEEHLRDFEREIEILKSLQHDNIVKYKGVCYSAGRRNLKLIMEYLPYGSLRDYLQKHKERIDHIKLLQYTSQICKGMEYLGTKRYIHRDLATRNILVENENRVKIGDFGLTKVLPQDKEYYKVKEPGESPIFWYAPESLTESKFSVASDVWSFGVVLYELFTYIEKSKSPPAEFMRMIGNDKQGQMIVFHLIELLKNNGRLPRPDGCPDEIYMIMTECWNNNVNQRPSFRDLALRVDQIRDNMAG
T2 sequence (P29597 whole entry): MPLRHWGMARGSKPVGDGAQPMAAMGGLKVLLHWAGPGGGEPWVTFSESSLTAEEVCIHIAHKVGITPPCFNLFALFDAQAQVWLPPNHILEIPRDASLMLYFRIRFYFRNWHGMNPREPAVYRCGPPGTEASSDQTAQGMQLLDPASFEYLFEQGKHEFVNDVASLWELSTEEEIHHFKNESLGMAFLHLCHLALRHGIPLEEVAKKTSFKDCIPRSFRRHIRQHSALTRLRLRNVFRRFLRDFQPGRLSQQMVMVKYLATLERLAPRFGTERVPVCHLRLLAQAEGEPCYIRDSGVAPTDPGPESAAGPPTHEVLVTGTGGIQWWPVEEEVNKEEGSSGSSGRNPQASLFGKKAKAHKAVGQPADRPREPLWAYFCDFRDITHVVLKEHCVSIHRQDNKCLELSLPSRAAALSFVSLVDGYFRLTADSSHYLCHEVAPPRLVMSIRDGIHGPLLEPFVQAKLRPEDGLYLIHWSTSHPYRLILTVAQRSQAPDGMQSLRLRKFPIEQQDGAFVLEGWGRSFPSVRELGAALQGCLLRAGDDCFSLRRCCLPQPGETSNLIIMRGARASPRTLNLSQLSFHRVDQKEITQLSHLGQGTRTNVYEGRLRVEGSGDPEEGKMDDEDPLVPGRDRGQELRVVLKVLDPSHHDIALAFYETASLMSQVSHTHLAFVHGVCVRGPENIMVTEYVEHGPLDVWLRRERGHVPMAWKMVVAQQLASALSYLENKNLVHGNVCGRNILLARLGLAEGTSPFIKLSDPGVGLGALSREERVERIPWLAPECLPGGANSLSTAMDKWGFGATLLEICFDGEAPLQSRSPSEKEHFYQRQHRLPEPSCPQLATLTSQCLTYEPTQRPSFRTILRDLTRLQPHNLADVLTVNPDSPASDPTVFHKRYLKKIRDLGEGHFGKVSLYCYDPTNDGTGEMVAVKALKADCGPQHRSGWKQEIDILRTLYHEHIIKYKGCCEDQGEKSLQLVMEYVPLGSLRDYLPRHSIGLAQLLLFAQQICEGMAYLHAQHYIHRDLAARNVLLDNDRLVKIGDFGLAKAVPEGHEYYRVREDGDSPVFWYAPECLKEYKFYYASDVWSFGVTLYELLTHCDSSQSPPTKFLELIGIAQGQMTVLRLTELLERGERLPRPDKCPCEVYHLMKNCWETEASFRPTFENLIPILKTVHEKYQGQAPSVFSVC

| Structure (SMILES) | pKd (JAK3) | S-Score: S(10) at 10 μM [1] | pIC50 [2] | pKd (TYK2) | pKd (JAK2) |
| --- | --- | --- | --- | --- | --- |
| Cc1cc(Nc2nc(C(=O)c3ccc(F)cc3)nc3scc(C)c23)n[nH]1 [Example 10, (4-fluorophenyl)(5-methyl-4-(5-methyl-1H-pyrazol-3-ylamino)thieno[2,3-d]pyrimidin-2-yl)methanone] | < 7.00 | A (A ≦ 0.3) | < 6.30 | < 7.00 | < 8.00 |
| Cc1cc2c(Nc3cc[nH]n3)nc(C(O)c3ccc(F)cc3)nc2s1 (racemic) [Example 17, (R,S)-(4-(1H-pyrazol-3-ylamino)-6-methylthieno[2,3-d]pyrimidin-2-yl)(4-fluorophenyl)methanol] | 7.00 to 8.00 | A (A ≦ 0.3) | 6.30 to 7.00 | < 7.00 | ≥ 9.00 |
| Cc1cc(Nc2nc(C(F)(F)c3ccc(F)cc3)nc3sc(C)cc23)n[nH]1 [Example 14, 2-(difluoro(4-fluorophenyl)methyl)-6-methyl-N-(5-methyl-1H-pyrazol-3-yl)thieno[2,3-d]pyrimidin-4-amine] | 7.00 to 8.00 | A (A ≦ 0.3) | ≥ 7.00 | ≥ 8.00 | ≥ 9.00 |
| Cc1cc(Nc2nc(C(O)c3ccc(F)cc3)nc3sc(C)cc23)n[nH]1 (racemic) [Example 16, (R,S)-(4-fluorophenyl)(6-methyl-4-(5-methyl-1H-pyrazol-3-ylamino)thieno[2,3-d]pyrimidin-2-yl)methanol] | 7.00 to 8.00 | C (0.4 < C ≦ 0.5) | ≥ 7.00 | ≥ 8.00 | ≥ 9.00 |
| CC(C)(C)c1cc2nc(C(F)(F)c3ccc(F)cc3)nc(Nc3cc[nH]n3)c2s1 [Example 31, 6-tert-butyl-2-(difluoro(4-fluorophenyl)methyl)-N-(1H-pyrazol-3-yl)thieno[3,2-d]pyrimidin-4-amine] | < 7.00 | A (A ≦ 0.3) | 6.30 to 7.00 | < 7.00 | 8.00 to 9.00 |
| Cc1cc(Nc2nc(C(=O)c3ccc(F)cc3)nc3c(C)csc23)n[nH]1 [Example 22, (4-fluorophenyl)(7-methyl-4-(5-methyl-1H-pyrazol-3-ylamino)thieno[3,2-d]pyrimidin-2-yl)methanone] | < 7.00 | A (A ≦ 0.3) | 6.30 to 7.00 | < 7.00 | 8.00 to 9.00 |
| Cc1cc(Nc2nc(C(=O)c3ccc(F)cc3)nc3cc(C(C)(C)C)sc23)n[nH]1 [Example 26, (6-tert-butyl-4-(5-methyl-1H-pyrazol-3-ylamino)thieno[3,2-d]pyrimidin-2-yl)(4-fluorophenyl) methanone] | < 7.00 | A (A ≦ 0.3) | 6.30 to 7.00 | < 7.00 | 8.00 to 9.00 |
| CC(C)(C)c1cc2nc(C(=O)c3ccc(F)cc3)nc(Nc3cc[nH]n3)c2s1 [Example 28, (4-(1H-pyrazol-3-ylamino)-6-tert-butylthieno[3,2-d]pyrimidin-2-yl)(4-fluorophenyl)methanone] | < 7.00 | A (A ≦ 0.3) | 6.30 to 7.00 | < 7.00 | 8.00 to 9.00 |
| Cc1cc2c(Nc3cc[nH]n3)nc(C(F)(F)c3ccc(F)cc3)nc2s1 [Example 15, 2-(difluoro(4-fluorophenyl)methyl)-6-methyl-N-(1H-pyrazol-3-yl)thieno[2,3-d]pyrimidin-4-amine] | 7.00 to 8.00 | A (A ≦ 0.3) | 6.30 to 7.00 | < 7.00 | 8.00 to 9.00 |
| Cc1cc(Nc2nc(C(F)(F)c3ccc(F)cc3)nc3ccsc23)n[nH]1 [Example 7, 2-(difluoro(4-fluorophenyl)methyl)-N-(5-methyl-1H-pyrazol-3-yl)thieno[3,2-d]pyrimidin-4-amine] | ≥ 8.00 | C (0.4 < C ≦ 0.5) | ≥ 7.00 | ≥ 8.00 | ≥ 9.00 |
| Cc1cc(Nc2nc(C(O)c3ccc(F)cc3)nc3sccc23)n[nH]1 (racemic) [Example 4, (R,S)-(4-fluorophenyl)(4-(5-methyl-1H-pyrazol-3-ylamino)thieno[2,3-d]pyrimidin-2-yl)methanol] | ≥ 8.00 | B (0.3 < B ≦ 0.4) | ≥ 7.00 | ≥ 8.00 | ≥ 9.00 |
| Fc1ccc(C(F)(F)c2nc(Nc3cc[nH]n3)c3ccsc3n2)cc1 [Example 2, 2-(difluoro(4-fluorophenyl)methyl)-N-(1H-pyrazol-3-yl)thieno[2,3-d]pyrimidin-4-amine] | 7.00 to 8.00 | A (A ≦ 0.3) | ≥ 7.00 | ≥ 8.00 | ≥ 9.00 |
| Cc1cc(Nc2nc(C(O)c3ccc(F)cc3)nc3ccsc23)n[nH]1 (racemic) [Example 6, (R,S)-4-Fluorophenyl)(4-(5-methyl-1H-pyrazol-3-ylamino)thieno[3,2-d]pyrimidin-2-yl)methanol] | ≥ 8.00 | A (A ≦ 0.3) | ≥ 7.00 | ≥ 8.00 | ≥ 9.00 |
| Fc1ccc(C(F)(F)c2nc(Nc3cc[nH]n3)c3sccc3n2)cc1 [Example 8, 2-(difluoro(4-fluorophenyl)methyl)-N-(1H-pyrazol-3-yl)thieno[3,2-d]pyrimidin-4-amine] | 7.00 to 8.00 | A (A ≦ 0.3) | ≥ 7.00 | ≥ 8.00 | ≥ 9.00 |
| CC(C)(C)c1cc2nc(C(O)c3ccc(F)cc3)nc(Nc3cc[nH]n3)c2s1 (racemic) [Example 29, (R,S)-(4-(1H-pyrazol-3-ylamino)-6-tert-butylthieno[3,2-d]pyrimidin-2-yl)(4-fluorophenyl)methanol] | < 7.00 | A (A ≦ 0.3) | 6.30 to 7.00 | < 7.00 | 8.00 to 9.00 |
